The values that follow come from ChEMBL document CHEMBL5241079, “Inhibitors of BCL2A1/Bfl-1 protein: Potential stock in cancer therapy” (Eur J Med Chem, 2021).

The target of data set [1] is T1, Apoptosis regulator Bcl-2 (Homo sapiens, UniProt P10415). The data set can be described thus: Inhibition of Bcl-2 (unknown origin) by fluorescence polarization assay. (In general: Fluorescence polarisation rises when a labelled molecule tumbles more slowly, as on binding a larger partner.)
For data set [2], the target named is T1, Apoptosis regulator Bcl-2. Kind of data set: Displacement of fluorescein tagged BID BH3 peptide from GST-tagged recombinant Bcl-2 (unknown origin) by fluorescence polarization-based competitive binding assay.
The target in data set [3] is Induced myeloid leukemia cell differentiation protein Mcl-1 (Homo sapiens) (UniProt Q07820). The data set can be described thus: Displacement of fluorescein tagged BID BH3 peptide from GST-tagged recombinant Mcl-1 (unknown origin) by fluorescence polarization-based competitive binding assay.
Induced myeloid leukemia cell differentiation protein Mcl-1 (Homo sapiens), sequence (Q07820 whole entry): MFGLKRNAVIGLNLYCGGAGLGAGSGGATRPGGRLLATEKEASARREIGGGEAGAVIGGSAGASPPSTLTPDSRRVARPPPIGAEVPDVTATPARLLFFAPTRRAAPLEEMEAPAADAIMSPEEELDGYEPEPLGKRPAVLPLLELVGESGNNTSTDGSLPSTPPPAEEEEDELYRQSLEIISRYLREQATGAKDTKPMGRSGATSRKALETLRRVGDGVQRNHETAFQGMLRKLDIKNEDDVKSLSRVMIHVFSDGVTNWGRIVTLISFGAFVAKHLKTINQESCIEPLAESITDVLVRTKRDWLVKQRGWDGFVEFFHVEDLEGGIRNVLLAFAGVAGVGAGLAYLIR
For data set [4], the target named is T2, Bcl-2-related protein A1 (Homo sapiens, UniProt Q16548).
T2 sequence (Q16548 whole entry): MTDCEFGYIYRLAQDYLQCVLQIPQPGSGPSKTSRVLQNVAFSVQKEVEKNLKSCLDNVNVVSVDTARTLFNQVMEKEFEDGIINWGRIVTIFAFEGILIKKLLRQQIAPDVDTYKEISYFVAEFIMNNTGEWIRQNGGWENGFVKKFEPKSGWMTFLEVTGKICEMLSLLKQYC
Kind of data set: Displacement of fluorescent-labeled BID-BH3 peptide from His-tagged BFL-1 (unknown origin).

The target in data set [5] is T2, Bcl-2-related protein A1. The data set can be described thus: Inhibition of Bfl-1 (unknown origin) by fluorescence polarization assay.
In data set [6] the target is T3, Bcl-2-like protein 11/Bcl-2-related protein A1 (Homo sapiens, UniProt O43521+Q16548). Kind of data set: Inhibition of Bfl-1/Bim (unknown origin) by fluorescence polarization assay. The format is protein-complex assay.
T3 sequence (O43521 whole entry, one chain of several): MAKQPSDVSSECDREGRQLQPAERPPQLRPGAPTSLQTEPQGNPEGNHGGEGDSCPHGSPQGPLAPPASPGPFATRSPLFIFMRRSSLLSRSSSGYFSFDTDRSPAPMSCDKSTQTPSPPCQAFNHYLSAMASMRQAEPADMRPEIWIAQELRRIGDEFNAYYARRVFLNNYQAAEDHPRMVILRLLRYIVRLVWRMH
Data set [7] has as its target T3, Bcl-2-like protein 11/Bcl-2-related protein A1. Kind of data set: Inhibition of Bfl-1/Bim (unknown origin) assessed as inhibition constant by fluorescence polarization assay. The format is protein-complex assay.
For data set [8] the target is unchanged. The data set can be described thus: Inhibition of Bfl-1/Bim (unknown origin) incubated for 30 mins by TR-FRET assay. The format is protein-complex assay. (Time-resolved FRET reads energy transfer from a long-lived donor to a nearby acceptor.)
Data set [9] can be described thus: Lipophilicity, logP of compound. In kind it is physicochemical. The conditions noted are these: octanol/water.

T1 sequence (P10415 whole entry): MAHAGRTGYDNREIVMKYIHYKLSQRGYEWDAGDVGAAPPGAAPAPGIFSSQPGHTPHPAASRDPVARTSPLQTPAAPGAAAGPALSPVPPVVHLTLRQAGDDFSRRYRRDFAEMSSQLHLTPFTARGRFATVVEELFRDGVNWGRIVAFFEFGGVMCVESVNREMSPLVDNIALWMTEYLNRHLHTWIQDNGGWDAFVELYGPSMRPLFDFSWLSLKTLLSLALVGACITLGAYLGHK

What is called IC50 is the concentration at which inhibition is half-maximal. High values mean weaker potency, low ones greater potency. Take `CC1=C(C2=C(C)C(=O)c3c(cc(O)c(O)c3Cc3ccccc3)C2=O)C(=O)c2cc(O)c(O)c(Cc3ccccc3)c2C1=O`: in data set [1], the IC50 worked out at 1300 nM.

As for `CC(C)=CCC[C@]1(C)C=Cc2c(O)c3c(c(CC=C(C)C)c2O1)O[C@]12C(=C[C@@H]4C[C@H]1C(C)(C)O[C@@]2(C/C=C(/C)C(=O)O)C4=O)C3=O` [GAMBOGIC ACID], the results for the IC5 in data set [2] and in data set [3] were 1.21 µM and 0.79 µM, respectively. In data set [1], this compound yielded an IC50 of 122 nM.

The term EC50 denotes the concentration at which the effect is half-maximal. In turn, `CC(=O)N[C@@H](Cc1c[nH]c2ccccc12)C(=O)NCCSSCCN(C)C` displayed an EC50 on Bcl-2-related protein A1 [4] of 23 nM. This lies in the double-digit nanomolar range.

Turning to `O=C1NC(=S)N(c2cccc(Br)c2)C(=O)/C1=C/C=C/c1ccccc1`, at Bcl-2-related protein A1 [5], the 50% inhibitory concentration (IC50) turned out to be 1600 nM.

The Ki is the equilibrium dissociation constant of an inhibitor or competing ligand from its target. A word on the logP: it is a log measure of how a compound divides between an organic and an aqueous phase. Low values mean lower lipophilicity, high ones higher lipophilicity. On to `COc1ccc(C(c2c(-c3ccccc3)n(O)c3ccccc23)N2CCN(C)CC2)cc1` (stereo not given), for which the values for the IC50 in data set [6] and in [8] were 800 nM and 1400 nM, respectively. Besides, in data set [7], the Ki came out at 400 nM. This compound registered a log partition coefficient (logP) in data set [9] of 4.

With `CSc1ccc(C(Nc2ccccn2)c2c(C)[nH]c3ccccc23)cc1` (stereo not given), the IC50 was found to be 6300 nM in [6] and 2500 nM in [8]. The Ki in data set [7] worked out at 2900 nM. For the same compound, the logP in data set [9] amounted to 4.

As to `CCOc1ccc(N2C(=O)/C(=C/C=C/c3ccccc3)C(=O)NC2=S)cc1`, half-maximal inhibition against Bcl-2-related protein A1 [5] (IC50) required 1300 nM.
